According to patent US6858648B2, “Laetispicine and laetispicine analogues, methods of use and preparation” (Fudan University, priority 2002, dated 2005):

Key:
mouse [1] = assay: Mouse acetic acid squirming method; assay type: in vivo; details: for Squirming X ± SE: dose 20 mg/kg, 1 hour before 0.2 ml 1% acetic acid into abdominal cavity, squirmings counted over 10 minutes, male mice; for inflammation and pain relieving effect compared with aspirin: 20 mg/kg each, mouse acetic acid squirming
Text: The pain and inflammation relieving effect of Laetispicine has been studied by the mouse acetic acid squirming method. In this study, 30 male mice were selected; each of them weighed 20 grams. These mice were divided randomly into 3 groups: Laetispicine group (10 mice), aspirin group (10 mice), and control group (10 mice). Laetispicine of 20 milligram/kilogram body weight in vehicle solution was given to each of the ten mice in Laetispicine group. For a positive control, aspirin of 20 milligram/kilogram body weight in vehicle solution was given to each of the ten mice in aspirin group. Vehicle solution only was given to ten mice in control group (negative control group). One hour later, each mouse was given 0.2 milliliter of 1% acetic acid solution by injection to its abdominal cavity. After the mouse squirmed first time, every squirming of each of the mouse was counted in a period of 10 minutes.

mouse [2] = assay: Mouse forced swimming experiment; assay type: in vivo; details: for Motionless Time (sec.) X ± SE: 1 hour after dosing, recorded over 4 minutes after 2 minutes adaptation, 10 mice per group; for anti-depression effect compared with Fluoxetine (Prozac): mouse forced swimming, relative to Fluoxetine
Text: Mouse forced swimming experiment is by far the best animal model to screen anti-depression drugs. The experiment is designed to create a despaired situation for a mouse by confining the mouse in a container filled with water. Mouse in water will swim to safety. When the mouse cannot find a way out after it tried in the water in the container, it despaired of swimming. There is psychological difference of different mice in the situation. A calm mouse is still swimming and trying to find a way out of the container, while a despaired mouse swims relatively less (moves less). A depressed mouse despairs easily. The more depressed the mouse, the severer the despair.
In this experiment, sixty mice were divided into 6 groups (10 mice in each group). (Referring to Table 1 and FIG. 2) Each mouse in experiment group 1 (Laetispicine 1) was given Laetispicine 50 milligram/kilogram body weight, each mouse in experiment group 2 (Laetispicine 2) was given Laetispicine 20 milligram/kilogram body weight, each mouse in experiment group 3 (Laetispicine 3) was given Laetispicine 10 milligram/kilogram body weight and each mouse in experiment group 4 (Laetispicine 4) was given Laetispicine 5 milligram/kilogram body weight. Fluoxetine (Prozac) was given 50 milligram/kilogram body weight to each mouse of positive control group (Fluoxetine), and placebo was given to each mouse of negative control group.
After receiving the drugs (or placebo) 1 hour later, mice were put into a glass container with a long and narrow opening. The dimension of the container is 30 cm height, filled with water to 15 cm deep.

| SMILES | Squirming X ± SE (mouse [1]) | Motionless Time (sec.) X ± SE (mouse [2]; dose 50 mg/kg) | effect on mouse depression (in words) (mouse [2]; Table 1 and FIG. 2, 5-50 mg/kg) | Motionless Time (sec.) X ± SE (mouse [2]; dose 5 mg/kg) | Motionless Time (sec.) X ± SE (mouse [2]; dose 10 mg/kg) | Motionless Time (sec.) X ± SE (mouse [2]; dose 20 mg/kg) | anti-depression effect compared with Fluoxetine (Prozac) (mouse [2]) | anti-depression effect compared with Fluoxetine (Prozac) (mouse [2]; listed as Lactispicine) | inflammation and pain relieving effect compared with aspirin (mouse [1]) | inflammation and pain relieving effect compared with aspirin (mouse [1]; listed as Lactispicine) |
| --- | --- | --- | --- | --- | --- | --- | --- | --- | --- | --- |
| CC(=O)Oc1ccccc1C(=O)O [Aspirin, reference compound] | 16.8 ± 3.43 |  |  |  |  |  |  |  |  |  |
| CNCCC(Oc1ccc(C(F)(F)F)cc1)c1ccccc1 (stereo not drawn) [Fluoxetine, reference compound] |  | 113.44 ± 10.10 s |  |  |  |  |  |  |  |  |
| CC(C)CNC(=O)/C=C/C=C/CCC/C=C/Cc1ccc2c(c1)OCO2 [Laetispicine, N-isobutyl-11-(3,4-methylendioxyphenyl)-2E,4E,9E-undecatrienamide] | 16.7 ± 4.92 | 17.67 ± 5.33 s | significantly reduced the mouse depression | 158.78 ± 5.13 s | 131.0 ± 8.86 s | 50.11 ± 12.69 s | five times effective than that of Prozac | 5 times | equivalent to that of aspirin | equivalent to the effect of Aspirin |
